Measurements from patent US9701628B2, “12-epi pleuromutilins” (NABRIVA THERAPEUTICS AG, priority 2014, dated 2017).
Converted amounts (≈) assume the structure as drawn. Counter-ions that a name gives are not always drawn. Like-named read-outs stand apart in the source and are kept apart here.

Columns and labels:
[1] = system: Staphylococcus aureus ATCC 49951; assay: MIC by broth microdilution (CLSI) against Staphylococcus aureus ATCC 49951; type: cell-based
Procedure: (§1) The in vitro activity against aerobic bacteria was determined by Broth Microdilution Test according to the Clinical and Laboratory Standards Institute (CLSI, former NCCLS) Document M7-A9 Vol 32, No 2 “Methods for Dilution Antimicrobial Susceptibility Tests for Bacteria that Grow Aerobically; Approved Standard—Ninth Edition (2012)”; and the test against anaerobic bacteria was performed by Agar Dilution Test according to the Clinical and Laboratory Standards Institute (CLSI, former NCCLS), Document, M11-A8, Vol. 32, No. 5: “Methods for Antimicrobial Susceptibility Testing of Anaerobic Bacteria; Approved Standard—Eighth Edition (2012)”. Performance standards and interpretive criteria followed the CLSI Document, M100-S23: “Performance Standards for Antimicrobial Susceptibility Testing; Twenty-Third Informational Supplement” (2013). The in vivo activity was tested by the septicaemia mouse model against Staphylococcus aureus and Escherichia coli.
(§2) The antibacterial activity expressed as minimal inhibitory concentration (MIC) was determined according to the approved standard reference recommendations of CLSI (former NCCLS) as described in the description of the application.

[2] = system: Escherichia coli ATCC25922; assay: MIC by broth microdilution (CLSI) against Escherichia coli ATCC 25922; type: cell-based
Procedure: as §1, §2

[3] = ATCC49951, Staphylococcus aureus ATCC 49951, in vitro, read-out: MIC
[4] = Escherichia coli ATCC25922, in vitro, read-out: MIC
[5] = Staphylococcus aureus ATCC 49951, in vitro
[6] = Escherichia coli ATCC25922, in vitro

SMILES	MIC [1, 3]	MIC [2, 4]	MIC [1, 5]	MIC [2, 6]	further results
C[C@@H]1CC[C@@]23CCC(=O)[C@H]2[C@]1(C)[C@H](OC(=O)CSC1CCCNCC1)C[C@](C)(CNCCCCCCN)[C@@H](O)[C@@H]3C (stereo partly drawn) [Example 130, 12-epi-12-desvinyl-14-O-[(Azepan-4-ylsulfanyl)-acetyl]-12-[(6-amino-hexylamino)-methyl] mutilin trihydrochloride]	≤ 0.03 µg/mL	0.5 µg/mL	–	–	–
CC1C(O)C(C)(CNCCCCCCNC(=N)N)CC(OC(=O)CSC2CCCNCC2)C2(C)C(C)CCC13CCC(=O)C32.Cl.Cl.Cl (stereo not drawn) [Example 131, 12-epi-12-desvinyl-14-O-[(Azepan-4-ylsulfanyl)-acetyl]-12-[(6-guanidino-hexylamino)-methyl] mutilin trihydrochloride]	–	–	0.06 µg/mL	0.125 µg/mL	–
C[C@@H]1CC[C@@]23CCC(=O)[C@H]2[C@]1(C)[C@H](OC(=O)CSC1CCCNCC1)C[C@](C)(CCNc1ccc(CN)cc1)[C@@H](O)[C@@H]3C (stereo partly drawn) [Example 143, 12-epi-12-desvinyl-14-O-[(Azepan-4-ylsulfanyl)-acetyl]-12-[(4-aminomethyl-phenylamino)-ethyl] mutilin trihydrochloride]	0.125 µg/mL	4 µg/mL	–	–	–
C[C@@H]1CC[C@@]23CCC(=O)[C@H]2[C@]1(C)[C@H](OC(=O)CSC1CCN(C(=O)CN)CC1)C[C@](C)(CCCCCCCCN)[C@@H](O)[C@@H]3C [Example 146, 12-epi-12-desvinyl-14-O-{[1-(2-Amino-acetyl)-piperidin-4-yl-sulfanyl]-acetyl}-2-(8-amino-octyl) mutilin dihydrochloride]	≤ 0.03 µg/mL	8 µg/mL	–	–	–
C[C@@H]1CC[C@@]23CCC(=O)C2[C@]1(C)[C@H](OC(=O)CSC1CCC(CNC(=O)CN)CC1)C[C@](C)(CCc1ccc(CNCCN)cc1)[C@@H](O)[C@@H]3C (stereo partly drawn) [Example 152, 12-epi-12-desvinyl-14-O-{{4-[(2-Amino-acetylamino)-methyl]-cyclohexylsulfanyl}-acetyl}-12-[2-{4-[(2-amino-ethylamino)-methyl]-phenyl}-ethyl) mutilin trihydrochloride]	0.25 µg/mL	4 µg/mL	–	–	–
CC1C(O)C(C)(C=Cc2ccc(CNCCN)c(F)c2)CC(OC(=O)CSC2CCCNCC2)C2(C)C(C)CCC13CCC(=O)C32.Cl.Cl.Cl (stereo not drawn) [Example 157, 12-epi-12-desvinyl-14-O-[(Azepan-4-ylsulfanyl)-acetyl]-12-((E)-2-{4-[(2-amino-ethylamino)-methyl]-3-fluoro-phenyl}-ethenyl) mutilin trihydrochlorid]	–	–	0.25 µg/mL	4 µg/mL	–
C=C[C@@]1(C)C[C@@H](OC(=O)CSc2nnc(N)[nH]2)[C@]2(C)[C@H](C)CC[C@]3(CCC(=O)[C@H]32)[C@@H](C)[C@@H]1O.Cl [Example C1, 12-epi-14-O-{[(5-Amino-4H-1,2,4-triazol-3-yl)-sulfanyl]-acetyl} mutilin hydrochloride, reference compound]	–	–	0.5 µg/mL	128 µg/mL	–
C=CC1(C)CC(OC(=O)CSc2ccc(CC(=O)NCC(C)N)cc2)C2(C)C(C)CCC3(CCC(=O)C32)C(C)C1O.Cl (stereo not shown) [Example C2, 14-O-{{4-[(2-Amino-propylcarbamoyl)-methyl]-phenylsulfanyl}-acetyl} mutilin hydrochloride, reference compound]	–	–	≦0.03 μg/mL	32 µg/mL	–
CC1C(O)C(C)(CNCCCN)CC(OC(=O)CSC2CCC(N)CC2O)C2(C)C(C)CCC13CCC(=O)C32.Cl.Cl.Cl [Example C3, 14-O-{[(1R,2R,4R)-4-Amino-2-hydroxy-cyclohexylsulfanyl]-acetyl}-12-desvinyl-12-[(3-amino-propylamino)-methyl] mutilin trihydrochlorid, reference compound]	–	–	16 µg/mL	>32 µg/mL	–
C=C[C@]1(C)C[C@@H](OC(=O)CS[C@@H]2C[C@H]3CC[C@@H](C2)N3C)[C@]2(C)[C@H](C)CC[C@]3(CCC(=O)[C@H]32)[C@@H](C)[C@@H]1O [Retapamulin, retapamulin, reference compound]	–	–	–	–	MIC ([1]; Staphylococcus aureus, ATCC49951): ≤ 0.03 µg/mL; MIC ([2]; Escherichia coli, ATCC25922): 32 µg/mL (≈ 61.8 µM)
C=C[C@]1(C)C[C@@H](OC(=O)CSCCN(CC)CC)[C@]2(C)[C@H](C)CC[C@]3(CCC(=O)[C@H]32)[C@@H](C)[C@@H]1O [Tiamulin, tiamulin, reference compound]	0.5 µg/mL (≈ 1.01 µM)	> 32 µg/mL	–	–	–
